Measured values: patent US8999976B2, “Modulators of cystic fibrosis transmembrane conductance regulator” (Vertex Pharmaceuticals Incorporated, priority 2008, dated 2015)

Target: T1, ΔF508-CFTR (Homo sapiens, UniProt P13569, DEL508-508)
T1 construct: expressed in transfected cells
Test: Membrane potential optical assay for potentiators of ΔF508-CFTR (FLIPR III, voltage sensing dyes)
Type: cell-based
Settings: for Emax: NIH3T3, 100% efficacy is the maximum response obtained with 4-methyl-2-(5-phenyl-1H-pyrazol-3-yl)phenol, ΔF508 CFTR NIH 3T3 cells; for EC50: temperature-corrected ΔF508 CFTR NIH 3T3 cells, forskolin activation
Text: The assay utilizes fluorescent voltage sensing dyes to measure changes in membrane potential using a fluorescent plate reader (e.g., FLIPR III, Molecular Devices, Inc.) as a readout for increase in functional ΔF508-CFTR in NIH 3T3 cells.
To identify potentiators of ΔF508-CFTR, a double-addition HTS assay format was developed. This HTS assay utilizes fluorescent voltage sensing dyes to measure changes in membrane potential on the FLIPR III as a measurement for increase in gating (conductance) of ΔF508 CFTR in temperature-corrected ΔF508 CFTR NIH 3T3 cells.
Solutions • Bath Solution #1: (in mM) NaCl 160, KCl 4.5, CaCl2 2, MgCl2 1, HEPES 10, pH 7.4 with NaOH. • Chloride-Free Bath Solution: Chloride Salts in Bath Solution #1 are Substituted with Gluconate Salts.
NIH3T3 mouse fibroblasts stably expressing ΔF508-CFTR are used for optical measurements of membrane potential. The cells are maintained at 37° C. in 5% CO2 and 90% humidity in Dulbecco's modified Eagle's medium supplemented with 2 mM glutamine, 10% fetal bovine serum, 1×NEAA, β-ME, 1×pen/strep, and 25 mM HEPES in 175 cm^2 culture flasks. For all optical assays, the cells were seeded at ˜20,000/well in 384-well matrigel-coated plates and cultured for 2 hrs at 37° C. before culturing at 27° C. for 24 hrs. for the potentiator assay. For the correction assays, the cells are cultured at 27° C. or 37° C. with and without compounds for 16-24 hours. Electrophysiological Assays for assaying ΔF508-CFTR modulation properties of compounds.

T1 sequence (P13569 with tags, fused parts or gaps DEL508-508): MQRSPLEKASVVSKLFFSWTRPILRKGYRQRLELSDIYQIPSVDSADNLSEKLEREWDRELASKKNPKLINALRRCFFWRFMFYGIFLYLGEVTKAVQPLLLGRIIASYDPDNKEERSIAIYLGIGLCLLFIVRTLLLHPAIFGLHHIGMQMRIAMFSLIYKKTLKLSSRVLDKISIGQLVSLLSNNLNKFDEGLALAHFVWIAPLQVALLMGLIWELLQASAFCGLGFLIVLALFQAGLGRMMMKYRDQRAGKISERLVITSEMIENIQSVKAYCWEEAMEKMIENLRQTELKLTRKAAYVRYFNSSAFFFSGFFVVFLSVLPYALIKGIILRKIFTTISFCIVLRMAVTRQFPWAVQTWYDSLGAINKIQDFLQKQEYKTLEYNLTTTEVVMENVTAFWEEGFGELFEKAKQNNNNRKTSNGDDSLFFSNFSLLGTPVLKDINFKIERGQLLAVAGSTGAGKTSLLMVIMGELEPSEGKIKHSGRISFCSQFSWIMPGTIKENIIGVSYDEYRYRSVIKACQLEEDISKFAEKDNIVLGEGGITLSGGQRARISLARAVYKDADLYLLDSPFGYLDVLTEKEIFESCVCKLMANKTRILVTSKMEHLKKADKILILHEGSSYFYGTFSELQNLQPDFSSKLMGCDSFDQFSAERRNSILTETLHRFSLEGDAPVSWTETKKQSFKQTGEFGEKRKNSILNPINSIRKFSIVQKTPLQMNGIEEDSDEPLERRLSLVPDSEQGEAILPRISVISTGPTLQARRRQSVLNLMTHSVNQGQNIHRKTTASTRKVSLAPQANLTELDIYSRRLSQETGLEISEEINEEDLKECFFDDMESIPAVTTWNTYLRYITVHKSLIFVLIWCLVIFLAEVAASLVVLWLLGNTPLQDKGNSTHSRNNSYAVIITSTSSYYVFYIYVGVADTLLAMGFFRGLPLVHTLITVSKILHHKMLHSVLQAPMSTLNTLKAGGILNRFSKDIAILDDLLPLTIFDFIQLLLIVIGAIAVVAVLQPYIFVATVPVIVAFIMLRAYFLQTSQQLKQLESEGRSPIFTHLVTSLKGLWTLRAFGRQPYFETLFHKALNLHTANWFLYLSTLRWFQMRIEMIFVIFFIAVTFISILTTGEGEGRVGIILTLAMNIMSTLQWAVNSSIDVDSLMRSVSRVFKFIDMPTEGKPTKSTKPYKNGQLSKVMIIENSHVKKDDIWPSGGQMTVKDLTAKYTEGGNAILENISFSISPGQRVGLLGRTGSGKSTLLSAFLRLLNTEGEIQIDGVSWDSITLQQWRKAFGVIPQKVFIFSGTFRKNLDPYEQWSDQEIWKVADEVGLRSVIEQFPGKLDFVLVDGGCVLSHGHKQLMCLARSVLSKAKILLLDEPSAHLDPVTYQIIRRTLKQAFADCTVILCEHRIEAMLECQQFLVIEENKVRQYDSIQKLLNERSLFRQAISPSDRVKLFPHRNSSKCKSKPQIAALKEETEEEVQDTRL

Emax | EC50 | Structure (SMILES)
25 to 100% | < 5 µM | Cc1cc(F)c(NC(=O)C2CNc3ccccc3O2)cc1O (centres unmarked) [Compound 55]
25 to 100% | < 5 µM | O=C(Nc1cc(O)cc(C(F)(F)F)c1)C1CNc2ccccc2O1 (centres unmarked) [Compound 57]
> 100% | < 5 µM | CN(C)CC#Cc1cc(C2CCCC2)c(O)cc1NC(=O)[C@H]1CNc2cc(OC(F)(F)F)ccc2O1 [Compound 58]
25 to 100% | < 5 µM | CC(C)(C)c1cc(C2CCCC2)c(O)cc1NC(=O)[C@@H]1CNc2cc(C#N)ccc2O1 [Compound 59]
25 to 100% | < 5 µM | CC(C)c1ccc(NC(=O)C2CNc3cc(Cl)ccc3O2)c(C#CCN(C)C)c1 (centres unmarked) [Compound 60]
25 to 100% | < 5 µM | O=C(Nc1cc(O)c(C2CCCC2)cc1F)C1CNc2ccc(F)cc2O1 (centres unmarked) [Compound 61]
25 to 100% | < 5 µM | Cc1ccc(NC(=O)C2CNc3cc(OC(F)(F)F)ccc3O2)c(C#CCN2CCN(C)CC2)c1 (centres unmarked) [Compound 62]
25 to 100% | < 5 µM | Cc1ccc(NC(=O)C2CNc3cc(OC(F)(F)F)ccc3O2)c(C#CCN2CCNC(=O)C2)c1 (centres unmarked) [Compound 63]
25 to 100% | < 5 µM | Cc1ccc(NC(=O)C2CNc3cc(OC(F)(F)F)ccc3O2)c(C#CCN2CCC(O)CC2)c1 (centres unmarked) [Compound 64]
> 100% | < 5 µM | CN(C)CC#Cc1cc(C2CCCC2)c(O)cc1NC(=O)[C@@H]1CNc2cc(OC(F)(F)F)ccc2O1 [Compound 65]
25 to 100% | < 5 µM | CC(C)(C)c1cc(C2CCCC2)c(O)cc1NC(=O)C1CNc2cc(S(C)(=O)=O)ccc2O1 (centres unmarked) [Compound 66]
25 to 100% | < 5 µM | Cc1ccc(NC(=O)C2CNc3cc(Cl)ccc3O2)c(C#CCN(C)C)c1 (centres unmarked) [Compound 67]
25 to 100% | < 5 µM | CC1(c2cc(F)c(NC(=O)C3CNc4ccc(F)cc4O3)cc2O)CCCCC1 (centres unmarked) [Compound 68]
25 to 100% | 5 to 20 µM | Cc1ccc(NC(=O)C2CNc3cc(OC(F)(F)F)ccc3O2)c(C#CCN2CCC(C(=O)O)CC2)c1 (centres unmarked) [Compound 69]
25 to 100% | < 5 µM | CC(C)(C)c1ccc(NC(=O)C2CNc3ccc(C(F)(F)F)cc3O2)cc1O (centres unmarked) [Compound 70]
25 to 100% | < 5 µM | Cc1ccc(NC(=O)C2CNc3cc(OC(F)(F)F)ccc3O2)c(C#CCN2CCCCC2)c1 (centres unmarked) [Compound 71]
25 to 100% | < 5 µM | Cc1cc(C2CCCC2)c(O)cc1NC(=O)C1CNc2cc(S(C)(=O)=O)ccc2O1 (centres unmarked) [Compound 72]
25 to 100% | < 5 µM | Cc1ccc(NC(=O)C2CNc3cc(OC(F)(F)F)ccc3O2)c(C#CCN2CCCC2)c1 (centres unmarked) [Compound 73]
25 to 100% | < 5 µM | Cc1cc(C2CCCC2)c(O)cc1NC(=O)C1CNc2cc(C#N)ccc2O1 (centres unmarked) [Compound 74]
> 100% | < 5 µM | COC(=O)Cc1cc(C2CCCC2)c(O)cc1NC(=O)C1CNc2cc(OC(F)(F)F)ccc2O1 (centres unmarked) [Compound 75]
25 to 100% | < 5 µM | O=C(Nc1cc(O)c(C2CCCC2)cc1C(F)(F)F)[C@@H]1CNc2cc(F)ccc2O1 [Compound 76]
25 to 100% | < 5 µM | CC(C)(C)c1ccc(NC(=O)[C@H]2CNc3ccc(F)cc3O2)cc1O [Compound 77]
25 to 100% | < 5 µM | CC(C)(C)c1ccc(NC(=O)C2CNc3c(F)cccc3O2)cc1O (centres unmarked) [Compound 78]

Emax | EC50 | Structure (SMILES)
> 100% | < 5 µM | CN(C)CC#Cc1cc(C2CCCC2)c(O)cc1NC(=O)C1(C)CNc2cc(OC(F)(F)F)ccc2O1 (centres unmarked) [Compound 79]
25 to 100% | < 5 µM | CC1(c2cc(F)c(NC(=O)[C@H]3CNc4ccccc4O3)cc2O)CCCCC1 [Compound 80]
25 to 100% | 5 to 20 µM | Cc1ccc(NC(=O)C2CNc3cc(OC(F)(F)F)ccc3O2)c(CCCN(C)C)c1 (centres unmarked) [Compound 81]
25 to 100% | < 5 µM | COc1cc(NC(=O)C2CNc3ccc(F)cc3O2)c(Cl)cc1C(C)(C)O (centres unmarked) [Compound 82]
25 to 100% | < 5 µM | CC(C)(C)c1ccc(NC(=O)[C@@H]2CNc3ccc(F)cc3O2)cc1O [Compound 83]
25 to 100% | < 5 µM | CN(C)CC#Cc1cc(C2CCCC2)c(O)cc1NC(=O)[C@H]1CNc2ccccc2O1 [Compound 84]
25 to 100% | < 5 µM | CC(C)(C)c1ccc(NC(=O)C2CNc3cccc(C(F)(F)F)c3O2)cc1O (centres unmarked) [Compound 85]
25 to 100% | < 5 µM | Cc1ccc2c(c1)OC(C(=O)Nc1cc(O)c(C)cc1F)CN2 (centres unmarked) [Compound 86]
25 to 100% | < 5 µM | CC(C)(C)c1cc(C2CCCC2)c(O)cc1NC(=O)C1CNc2cc(C#N)ccc2O1 (centres unmarked) [Compound 87]
25 to 100% | < 5 µM | Cc1cc(C2CCCC2)c(O)cc1NC(=O)[C@H]1CNc2cc(C#N)ccc2O1 [Compound 88]
25 to 100% | < 5 µM | C[C@H]1CCCN1c1ccc(NC(=O)C2CNc3ccccc3O2)c(C(F)(F)F)c1 (some centres unmarked) [Compound 89]
25 to 100% | < 5 µM | CC(C)(C)c1cc(C(C)(C)C)c(NC(=O)C2CNc3ccccc3O2)cc1O (centres unmarked) [Compound 90]
25 to 100% | < 5 µM | Cc1ccc(NC(=O)C2CNc3cc(OC(F)(F)F)ccc3O2)c(C#CCN(C)C)n1 (centres unmarked) [Compound 91]
25 to 100% | < 5 µM | CC(C)(C)c1ccc(NC(=O)C2CNc3ccccc3O2)cc1F (centres unmarked) [Compound 92]
25 to 100% | < 5 µM | O=C(Nc1cc(O)c(C2CCCC2)cc1C(F)(F)F)[C@H]1CNc2cc(F)ccc2O1 [Compound 93]
25 to 100% | < 5 µM | COc1cc(NC(=O)C2CNc3ccc(F)cc3O2)ccc1C(C)(C)C (centres unmarked) [Compound 94]
> 100% | < 5 µM | COc1cc(NC(=O)C2CNc3cc(OC(F)(F)F)ccc3O2)c(C#CCN(C)C)cc1C1CCCC1 (centres unmarked) [Compound 95]
25 to 100% | < 5 µM | Cc1cc(C#CC(=O)O)c(NC(=O)C2CNc3cc(OC(F)(F)F)ccc3O2)cc1O (centres unmarked) [Compound 96]
25 to 100% | < 5 µM | Cc1ccc2c(c1)NCC(C(=O)Nc1cc(O)c(C3(C)CCCCC3)cc1F)O2 (centres unmarked) [Compound 97]
25 to 100% | < 5 µM | CNCC#Cc1cc(C2CCCC2)c(O)cc1NC(=O)C1CNc2cc(OC(F)(F)F)ccc2O1 (centres unmarked) [Compound 98, N-(4-cyclopentyl-5-hydroxy-2-(3-(methylamino)prop-1-ynyl)phenyl)-6-(trifluoromethoxy)-3,4-dihydro-2H-benzo[b][1,4]oxazine-2-carboxamide]
25 to 100% | < 5 µM | CC1(c2cc(F)c(NC(=O)C3CNc4ccccc4O3)cc2O)CCCCC1 (centres unmarked) [Compound 99]
> 100% | < 5 µM | Cc1ccc(NC(=O)C2CNc3cc(OC(F)(F)F)ccc3O2)c(C#CCN2CCOCC2)c1 (centres unmarked) [Compound 100, N-(4-methyl-2-(3-morpholinoprop-1-ynyl)phenyl)-6-(trifluoromethoxy)-3,4-dihydro-2H-benzo[b][1,4]oxazine-2-carboxamide]

Structure (SMILES) | Emax | EC50
Cc1cc(N2C3CCC2CC3)ncc1NC(=O)C1CNc2ccc(F)cc2O1 (centres unmarked) [Compound 56] | 25 to 100% | 5 to 20 µM
